# Results as given in article PMC5958115, “A novel small molecule chaperone of rod opsin and its potential therapy for retinal degeneration” (Nature Communications, 2018).
# Like-named read-outs stand apart in the source and are kept apart here.
# Key:
# rod opsin = biological target: T1, rod opsin (Mus musculus, UniProt P15409); assay: cAMP quantification assay in NIH3T3-(WT-opsin/GFP) cells with forskolin; type: cell-based
# T1 construct: expressed in transfected cells
# Experimental: NIH3T3-(Opsin/GFP) and NIH3T3-(GFP) were plated in two 96-well plates at a density of 50,000 cells per well in 100 µL of DMEM medium containing 10% FBS and antibiotics. After 24 h, cells were washed with Krebs Ringer bicarbonate buffer containing glucose (KRBG), and incubated with KRBG buffer containing 100 µM cAMP specific phosphodiesterase inhibitor, Ro 20–1724 (Tocris, UK) at RT for 10 min. […] While one plate then was wrapped with aluminum foil, the second plate was exposed to regular room light. Both plates were kept in a cell culture incubator for 15 min at 37 °C in 5% CO2. Levels of accumulated cAMP were detected with the Catchpoint cAMP fluorescent assay kit (Molecular Devices, Sunnyvale, CA USA) and the fluorescence with excitation/emission at 530/590 nm was read with a Flexstation3 plate reader (Molecular Devices) as described in the manufacturer’s protocol.
# bovine rod opsin = biological target: T2, bovine rod opsin (Bos taurus, UniProt P02699); assay: Gt activation assay (GTPγS-induced fluorescence change); type: biochemical
# T2 construct: Constitutive activity of bovine opsin in disc membranes; from tissue; host or cells: bovine retina ROS membranes (opsin membranes and purified Gt)
# Experimental: Gt was extracted and purified from frozen bovine ROS membranes as described in Preparation of Opsin Membranes. The intrinsic increase in the fluorescence from Gtα was measured with a L55 luminescence spectrophotometer (PerkinElmer Life Sciences) using an excitation and emission wavelengths of 300 and 345 nm, respectively[39],[40]. […] DMSO-treated opsin membranes were used to obtain a baseline for the basal activity of opsin. The molar ratio of opsin to Gt was 1:10, with opsin at a concentration of 100 nM and Gt at 1000 nM. […] This step was followed by the addition of 300 μM GTPγS (Sigma-Aldrich) to determine the GTPγS-induced complex dissociation and corresponding fluorescence changes. Gt activation rates were determined and plotted for the first 100 s of the Gt activation assay[40],[67].
# bovine opsin = biological target: T3, bovine opsin (Bos taurus, UniProt P02699); assay: Isorhodopsin pigment regeneration in ROS disc membranes (absorbance at 487 nm); type: biochemical; conditions: for competition with 9-cis-retinal in the chromophore-binding pocket: added simultaneously or sequentially with 9-cis-retinal
# T3 construct: ROS membranes were isolated from bovine retinas under dim red light; from tissue; host or cells: bovine retina, rod outer segment (ROS) disc membranes, bleached with hydroxylamine
# Experimental: ROS membranes containing opsin were suspended in buffer composed of 20 mM BTP, pH 7.5, and 100 mM NaCl at a final concentration of 2.5 µM. […] Membranes then were solubilized with 20 mM DDM for 10 min at RT and UV–visible spectra of these samples were measured. To follow the kinetics of isorhodopsin regeneration, opsin membranes were treated with 0, 20, or 60 µM YC-001 for 15 min at RT. […] UV–visible spectra of the samples were measured every 2 min until 2 h of reaction time at RT. Each condition was repeated three times. The time course of isorhodopsin regeneration was fitted by a second-order exponential decay and apparent half-lives were obtained at the time when reaction reached half of the end-point product.
# Alternatively, opsin incubated with the above ligands was purified by 1D4-immunoaffinity chromatography. […] After washing, opsin samples were eluted by addition of 1D4 peptide ([…]) to the above buffer and their spectra were measured with a UV–visible spectrophotometer.
# To test whether YC-001 stabilizes rod opsin, opsin samples (2.5 µM) were incubated with or without 10 µM YC-001 for 15 min, followed by solubilization in 20 mM DDM. […] UV–visible spectra of these samples then were measured.
# [1] = test system: S. typhimurium TA1535, TA97a, TA98, TA100 and E. coli WP2; assay: Micro Ames bacterial mutation test, five strains, with or without S9; conditions: 0.075-250 µg per well
# Experimental: To determine the potential genotoxicity of YC-001, a Micro Ames test was performed by the Charles River Laboratories, Inc. The S9 microsomal fraction was obtained from Moltox Molecular Toxicology, Inc. (Boone, NC, USA). A premixture was prepared including 25 µL of S9 mix (10% v/v S9 fraction in 8 mM MgCl2, 33 mM KCl, 100 mM sodium phosphate buffer, pH 7.4, +S9) or phosphate buffer (0.2 M sodium phosphate, pH 7.4, no S9), 5 µL of bacterial culture (>1000 × 10^6 bacteria mL^−1) and 100 µL of molten top agar supplemented with 0.05 mM biotin and minimal histidine (0.05 mM) and minimal tryptophan (0.05 mM). The 24-well plates were prepared by adding 1.3 mL of minimal bottom agar (1.3% agar, Vogel-Bonner medium E and 0.25% glucose) to each well. A 10 µL aliquot of YC-001 working solution/negative/positive control was added to each well followed by addition of 130 µL of the premixture. The plates kept on a leveled surface for 1 h while the top agar solidified, then were incubated at 37 °C for 72 h. After this period, plates were stored at 4 °C before revertant colony counts were manually recorded using an inverted microscope. […]
# T3 sequence (P02699 whole entry): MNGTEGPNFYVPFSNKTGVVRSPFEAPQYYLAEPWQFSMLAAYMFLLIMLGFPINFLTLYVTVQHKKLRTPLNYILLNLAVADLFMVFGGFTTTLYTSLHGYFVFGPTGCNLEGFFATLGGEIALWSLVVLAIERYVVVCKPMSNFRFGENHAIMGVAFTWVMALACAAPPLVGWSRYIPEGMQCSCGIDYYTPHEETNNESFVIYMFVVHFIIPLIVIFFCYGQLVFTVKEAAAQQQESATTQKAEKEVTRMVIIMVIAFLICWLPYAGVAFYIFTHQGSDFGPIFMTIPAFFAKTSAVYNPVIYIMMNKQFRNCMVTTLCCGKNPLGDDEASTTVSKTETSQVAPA
# T2 sequence (P02699 whole entry): as above
# T1 sequence (P15409 whole entry): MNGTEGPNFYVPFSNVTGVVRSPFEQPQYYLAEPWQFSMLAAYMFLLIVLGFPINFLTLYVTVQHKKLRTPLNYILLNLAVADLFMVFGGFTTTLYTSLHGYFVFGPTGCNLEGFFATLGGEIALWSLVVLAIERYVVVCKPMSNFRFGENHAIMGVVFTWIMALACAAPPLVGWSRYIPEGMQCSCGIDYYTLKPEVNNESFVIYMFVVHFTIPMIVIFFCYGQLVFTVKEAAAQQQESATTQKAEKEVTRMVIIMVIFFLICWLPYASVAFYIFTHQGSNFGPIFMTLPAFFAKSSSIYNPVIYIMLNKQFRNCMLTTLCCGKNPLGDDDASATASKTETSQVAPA
SMILES,fold increase in the EC50 of 9-cis-retinal (rod opsin; 40 μM YC-001 co-treatment vs 9-cis-retinal alone),"EC50 (rod opsin; 9-cis-retinal alone, under light, read-out: EC50, cAMP levels)","initial rate of Gt activation, ln(kinitial) (bovine rod opsin; isorhodopsin regenerated by 40 µM 9-cis-retinal alone, upon illumination)",competition with 9-cis-retinal in the chromophore-binding pocket (bovine opsin),"EC50 (rod opsin; YC-001 alone, dark or light, read-out: EC50, increase in cAMP levels)","EC50 (rod opsin; YC-001 with 1 μM 9-cis-retinal, under light, read-out: EC50, increase in cAMP levels)","half-life of rod opsin aging at RT (bovine opsin; 10 µM YC-001 vs opsin alone, 0-6 h)","total amount of regenerated isorhodopsin pigment at the end of the reaction (bovine opsin; increasing YC-001, sequential 9-cis-retinal)",reversibility of interaction with opsin (bovine opsin; opsin/isorhodopsin purification after treatment),"IC50 (bovine opsin; read-out: IC50, regenerated isorhodopsin)","initial rate of Gt activation, ln(kinitial) (bovine rod opsin; 40 µM compound, constitutive activity of opsin, DMSO control −5.3)","initial rate of Gt activation, ln(kinitial) (bovine rod opsin; co-treated with 40 µM 9-cis-retinal and 40 µM YC-001, upon illumination)",Ames test result [1]
"CC1=C(/C=C/C(C)=C\C=C\C(C)=C\C=O)C(C)(C)CCC1 [9-cis-retinal, reference compound]",3 fold,0.0757 µM,−4.6,–,–,–,–,–,–,–,–,–,–
"O=C(CCCCCN1C(=O)c2cccc3cccc(c23)C1=O)NO [Scriptaid, reference compound]",–,–,–,does not compete with 9-cis-retinal,–,–,–,–,–,–,–,–,–
O=C1OCC(c2ccc(Cl)s2)=C1c1cccs1 [YC-001],–,–,–,competing with 9-cis-retinal in a short timeframe,8.22 µM,29.9 µM,significantly longer half-life,did not affect,reversible,11.4 µM,−6.1,−4.9,negative
